Read-outs that look alike come from different tables or passages of the source. Marks after values point to notes of the source that are not given here.
Columns and labels:
HIV = conditions: cited from earlier work
[1] = HIV-1-infected patients; cited from earlier work
CYP isozymes = conditions: cited from earlier work
[2] = tested on: HIV-1 protease and reverse transcriptase; assay: Development of resistance (genotype/phenotype testing, PhenoSense GT); conditions: two patients (one treatment-experienced, one treatment-naïve) receiving emtricitabine
[3] = tested on: plasma HIV-1 RNA (viral load); conditions: treatment-naïve patients in ARTEMIS, TLOVR, ITT analysis; cited from earlier work
[4] = Pharmacokinetic substudy (intensive sampling, non-compartmental analysis); conditions: steady state, plasma, substudy n = 60, darunavir 800 mg + cobicistat 150 mg once daily plus N[t]RTIs
Procedure: The pharmacokinetic substudy included intensive pharmacokinetic sampling over 24 hours and was performed in a subset of patients (target n =48 evaluable) at selected study sites.
For the whole study population, sparse blood samples for analysis of study drug plasma concentrations were collected over 24 hours at Weeks 2, 4, 8, 12, 16, 24, 36 and 48. For the pharmacokinetic substudy, plasma samples were collected predose, 1, 2, 3, 3.5, 4, 4.5, 5, 6, 8, 10, 12 and 24 hours post-dose at a visit between Weeks 2 and 8.
For the pharmacokinetic substudy, steady-state pharmacokinetic parameters (Cmax, Cmin and AUC24h) were obtained using non-compartmental analysis (WinNonlin® software version 6.2, Pharsight Corporation, Mountain View, CA, USA). The intensive pharmacokinetic substudy data was used to revise an existing 2-compartment population pharmacokinetic model with first-order absorption.

wild-type virus = conditions: cited from earlier work
[5] = Population pharmacokinetics of darunavir (Bayesian feedback analysis); conditions: human, in vivo; for AUC(0-t): read-out: Population pharmacokinetic-derived AUC24h, mean (SD)

## CC(C)c1nc(CN(C)C(=O)N[C@@H](CCN2CCOCC2)C(=O)N[C@H](CC[C@H](Cc2ccccc2)NC(=O)OCc2cncs2)Cc2ccccc2)cs1 [Cobicistat, cobicistat]
HIV
  Antiviral activity: no antiviral activity
[1]
  AUCtau, historical data: 8.3 µg·h/mL
  Cmax, historical data: 1100 ng/mL
CYP isozymes
  Induction of CYP isozymes: does not induce CYP isozymes

## Nc1nc(=O)n([C@@H]2CS[C@H](CO)O2)cc1F [Emtricitabine, emtricitabine]
[2]
  Phenotypic resistance associated with emerging M184V N[t]RTI RAM: associated with phenotypic resistance

## darunavir/ritonavir
[3]
  Week 48 virologic response rate: 84%

## Nc1ccn([C@@H]2CS[C@H](CO)O2)c(=O)n1 [lamivudine]
[2]
  Phenotypic resistance associated with emerging M184V N[t]RTI RAM: associated with phenotypic resistance

## CC(C)CN(C[C@@H](O)[C@H](Cc1ccccc1)NC(=O)O[C@H]1CO[C@H]2OCC[C@H]21)S(=O)(=O)c1ccc(N)cc1 [Darunavir, darunavir]
[4]
  Ctau [mean (SD)]: 1311 (969)* ng/ml
wild-type virus
  protein-binding adjusted 50% effective concentration: 55 ng/mL
[5]; 17 treatment-experienced patients, with cobicistat
  AUC(0-t): 120 µg·h/mL
[5]; 17 treatment-experienced patients, with cobicistat, read-out: Population pharmacokinetic-derived C0h, mean (SD)
  concentration at 0 h: 2920 ng/mL
[5]; 281 treatment-naïve patients, with cobicistat
  AUC(0-t): 101 µg·h/mL
[5]; 281 treatment-naïve patients, with cobicistat, read-out: Population pharmacokinetic-derived C0h, mean (SD)
  concentration at 0 h: 2100 ng/mL
[5]; Week 48, overall n = 298, with cobicistat
  AUC(0-t): 102 µg·h/mL
[5]; Week 48, overall n = 298, with cobicistat, read-out: Population pharmacokinetic-derived trough plasma concentration (C0h), mean (SD)
  concentration at 0 h: 2150 ng/mL

Source: paper PMC4413526 (AIDS Research and Therapy, 2014)
